The values that follow come from paper PMC5011342, “A high throughput drug screening assay to identify compounds that promote oligodendrocyte differentiation using acutely dissociated and purified oligodendrocyte precursor cells” (BMC Research Notes, 2016).

Series [1] deals with acutely dissociated and purified rat OPCs. Nature of the series: Acute OL differentiation assay (MBP expression/cell, immunofluorescent image quantification). The series is classed as cell-based. Particulars: Rattus norvegicus, sheet "All OLga data". In a few lines:
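Oligodendrocyte precursor cells were enriched from P6-P7 Sprague–Dawley rat brains by immunopanning (RAN-2 and GalC depletion, O4 selection), plated at 5000 cells/well in serum-free, mitogen-free differentiation media on PDL/laminin 96-well view plates, centrifuged at 200×g, and pre-incubated 1–2 h before test compounds were added in quadruplicate. On DIV4, cells were fixed, stained for MBP and DAPI, imaged automatically, and MBP expression per cell was quantified.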

The test system of series [2] is expanded OPCs. Put plainly: cells. The following applies: for 0.1 µM (% DMSO) / 1 µM (% DMSO) / 10 µM (% DMSO): alamarBlue viability of expanded OPCs, relative to DMSO control; for 0.1 µM (% DMSO): compound at 0.1 µM; for 1 µM (% DMSO): compound at 1 µM; for 10 µM (% DMSO): compound at 10 µM; for viability at 0.1 µM / viability at 1 µM / viability at 10 µM: Rattus norvegicus, 72 h. Summed up: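 Expanded OPCs seeded at 10,000 cells/well in differentiation media, then exposed to NCC library compounds at 10, 1 and 0.1 µM (quadruplicate, 0.1% DMSO) for three days. Viability read as alamarBlue fluorescence (560/590 nm) after 4 h at 37 °C; tunicamycin 5 ng/ml served as toxicity control.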
On the technique in general: Alamar Blue is a resazurin reagent that responds to reducing activity.

Where [3] appears, read: test compound at 2 uM, MBP expression relative to quetiapine, NCC library screen, read-out: 2 uM (% Quet).
Where [4] appears, read: test compound at 10 uM, MBP expression relative to quetiapine, NCC library screen, read-out: 10 uM (% Quet).
The mark [5] stands for this setting: test compound at 2 uM, NCC library screen, relative to quetiapine, read-out: 2 uM (% Quet).
[6] abbreviates: test compound at 10 uM, NCC library screen, relative to quetiapine, read-out: 10 uM (% Quet).
Setting [7] is: 2 uM test compound, relative to quetiapine, read-out: OL differentiation, 2 uM (% Quet).
Where [8] appears, read: read-out: 0.1 µM (% DMSO), alamarBlue viability of expanded OPCs, compound at 0.1 µM, sheet All Tox data.
Where [9] appears, read: read-out: 1 µM (% DMSO), alamarBlue viability of expanded OPCs, compound at 1 µM, sheet All Tox data.
Setting [10] is: read-out: 10 µM (% DMSO), alamarBlue viability of expanded OPCs, compound at 10 µM, sheet All Tox data.

Where a name gives a salt, the structure may show the parent alone. Read-outs that look alike come from different tables or passages of the source.

Turning to `Nc1nc(O)c2ncn(COC(CO)CO)c2n1` [Ganciclovir], the activation at 2 µM in series [1] (setting [3]) was 3.8%. For the same compound, in series [1] (setting [4]), the activation at 10 µM was -9.7%. In series [2], the “0.1 µM (% DMSO)” value came to 103.0 % DMSO, the “1 µM (% DMSO)” value turned out to be 100.7 % DMSO and the “10 µM (% DMSO)” value was 106.5 % DMSO.

With `O=C1CC2(CCCC2)CC(=O)N1CCCCN1CCN(c2ncccn2)CC1` [Buspirone], the activation at 2 µM in series [1] (setting [3]) was 11.2%. Further, the activation at 10 µM in series [1] (setting [4]) amounted to 38.1%. Further, in series [2], the “0.1 µM (% DMSO)” value is on record as 98.1 % DMSO, the “1 µM (% DMSO)” value stood at 95.9 % DMSO and the “10 µM (% DMSO)” value is 122.3 % DMSO.

On to `C[C@]12C=CC(=O)C=C1CC[C@@H]1[C@@H]2C(=O)C[C@@]2(C)[C@H]1CC[C@]2(O)C(=O)CO` [Prednisone], for which the activation at 2 µM in series [1] (setting [5]) is -4.5%. In addition, the activation at 10 µM in series [1] (setting [6]) was -47.4%. Moreover, in series [2], the “0.1 µM (% DMSO)” value is on record as 88.8 % DMSO, the “1 µM (% DMSO)” value came out at 89.0 % DMSO and the “10 µM (% DMSO)” value came out at 86.2 % DMSO.

On to `CNCCC(Oc1ccc(C(F)(F)F)cc1)c1ccccc1` (stereo not shown) [Fluoxetine hydrochloride], for which the activation at 0.08 µM in series [1] (test compound at 0.08 uM, MBP expression relative to quetiapine, NCC library screen, read-out: 0.08 uM (% Quet)) is 13%. For the same compound, the activation at 0.4 µM in series [1] (test compound at 0.4 uM, MBP expression relative to quetiapine, NCC library screen, read-out: 0.4 uM (% Quet)) was determined as 10.7%. Besides, in series [2], the “0.1 µM (% DMSO)” value is on record as 77.4 % DMSO, the “1 µM (% DMSO)” value was 42.2 % DMSO and the “10 µM (% DMSO)” value amounted to 7.9 % DMSO.

`NS(=O)(=O)c1cc2c(cc1C(F)(F)F)NC(Cc1ccccc1)NS2(=O)=O` (stereo not shown) [Bendroflumethiazide]: the activation at 2 µM in series [1] (setting [3]) is -41.7%. For the same compound, the activation at 10 µM in series [1] (setting [4]) is -47.6%. For the same compound, in series [2], the “0.1 µM (% DMSO)” value is on record as 95.4 % DMSO, the “1 µM (% DMSO)” value is listed as 93.1 % DMSO and the “10 µM (% DMSO)” value came to 98.5 % DMSO.

By viability is commonly meant a per cent measure of how many cells are alive, often set against a control. Regarding `Cc1cc2c(s1)Nc1ccccc1N=C2N1CCN(C)CC1` [Olanzapine], in series [1] (0.4 uM test compound, relative to quetiapine, read-out: OL differentiation, 0.4 uM (% Quet)), the activation at 0.4 µM was -3%. Also, the activation at 2 µM in series [1] (setting [7]) is -9.8%. Besides, the viability at 0.1 µM in series [2] (setting [8]) came out at 90.8%. For the same compound, the viability at 1 µM in series [2] (setting [9]) came out at 60.6%. Besides, the viability at 10 µM in series [2] (setting [10]) stood at 30.2%.

Turning to `O=C(O)CCc1nc(-c2ccccc2)c(-c2ccccc2)o1` [Oxaprozin], the activation at 2 µM in series [1] (setting [7]) was -15.3%. Also, the activation at 10 µM in series [1] (10 uM test compound, relative to quetiapine, read-out: OL differentiation, 10 uM (% Quet)) is -15%. For the same compound, the viability at 0.1 µM in series [2] (setting [8]) came out at 91.8%. In series [2] (setting [9]), the viability at 1 µM was found to be 86.6%. In addition, the viability at 10 µM in series [2] (setting [10]) is 78%.

For `NC(=O)c1cnccn1` [Pyrazinamide], the activation at 2 µM in series [1] (setting [5]) is -8.1%. For the same compound, the activation at 10 µM in series [1] (setting [6]) was -1.1%. Besides, in series [2], the “0.1 µM (% DMSO)” value came to 89.2 % DMSO, the “1 µM (% DMSO)” value came out at 94.5 % DMSO and the “10 µM (% DMSO)” value is given as 87.7 % DMSO.

As to `Cc1cccc(C)c1OCC(C)N` (stereo not shown) [Mexiletine], the activation at 2 µM in series [1] (setting [3]) is -15.2%. Moreover, in series [1] (setting [4]), the activation at 10 µM is -7.4%. For the same compound, in series [2], the “0.1 µM (% DMSO)” value is on record as 91.7 % DMSO, the “1 µM (% DMSO)” value was 86.5 % DMSO and the “10 µM (% DMSO)” value was found to be 72.1 % DMSO.

In the case of `Oc1ncnc2[nH]ncc12` [Allopurinol], the activation at 2 µM in series [1] (setting [5]) was -5.6%. For the same compound, the activation at 10 µM in series [1] (setting [6]) was -5.5%. Moreover, in series [2], the “0.1 µM (% DMSO)” value is reported as 83.9 % DMSO, the “1 µM (% DMSO)” value is 89.7 % DMSO and the “10 µM (% DMSO)” value turned out to be 89.6 % DMSO.

`CN1C2CCCC1CC(NC(=O)c1nn(C)c3ccccc13)C2` (stereo not shown) [Granisetron]: the activation at 2 µM in series [1] (setting [5]) is -25.3%. The activation at 10 µM in series [1] (setting [6]) was -23.7%. In addition, in series [2] (read-out: 0.1 µM (% DMSO), alamarBlue viability, NCC library compound at 0.1 µM, sheet "All Tox data"), the viability at 0.1 µM worked out at 84.1%. Besides, the viability at 1 µM in series [2] (read-out: 1 µM (% DMSO), alamarBlue viability, NCC library compound at 1 µM, sheet "All Tox data") was 87.1%. The viability at 10 µM in series [2] (read-out: 10 µM (% DMSO), alamarBlue viability, NCC library compound at 10 µM, sheet "All Tox data") turned out to be 72.4%.
